Assay results taken from US11083795B2, “Amorphous metal-organic frameworks” (Cambridge Enterprise Limited, priority 2015, dated 2021).

Key:
HeLa cells = experiment: Drug cellular uptake by confocal microscopy; format: cell-based; conditions: 24 h incubation; frameworks 0.5 mg/mL, free calcein 0.075 mg/mL
Experimental: HeLa cells were seeded in a NUNC™ imaging four-well plate at a density of 1.11×10^5 cell/mL and incubated for 24 h at 37° C. with 5% CO2 in DMEM supplemented with 10% (v/v) Fetal Bovine Serum (FBS), 2 mM L-glutamine, 100 units/mL penicillin and 100 μg/mL streptomycin.
The cells were washed twice with PBS and incubated together with calcein-loaded crystalline Zr-containing metal-organic frameworks (0.5 mg/mL) for 24 h. The amorphous frameworks were obtained by mechanical amorphization of calcein-loaded crystalline Zr-containing metal-organic frameworks. The metal-organic frameworks were well-dispersed in culture media before they were added to the cells.
Untreated cell and free calcein (at a concentration of 0.075 mg/mL) were included as controls.
After incubation for 24 h, the cells were washed several times to remove the non-internalized particles. Cells then were incubated for 15 min with Hoechst 33342 (H33342) and 1× of CellMask™ Orange to stain the nucleus and cell membrane, respectively (each dye provided at a concentration of 5 μg/mL). The cells were then washed extensively to remove the dyes and fresh media (without phenol red) was added to each sample. Finally, the plate was placed on a Leica TCS SP5 confocal microscope for imaging. The microscope was equipped with 405 diode, argon and HeNe lasers. Leica LAS AF software was used to analyse the images.

rat = tested on: rat; set-up: lethal dose LD50: unit not given here; conditions: cited from earlier work

Structure (SMILES) | calcein signal in HeLa cells by confocal microscopy (HeLa cells) | lethal dose LD50 (rat; in rats) | oral lethal dose, LD50 (rat; oral, rat model)
O=C(O)CN(CC(=O)O)Cc1cc2c(cc1O)Oc1cc(O)c(CN(CC(=O)O)CC(=O)O)cc1C21OC(=O)c2ccccc21 [calcein] | stained weakly in the form of bright vesicles |  | 
CC(=O)[O-].CC(=O)[O-].[O-2].[Zr+4] [zirconyl acetate] |  | ~4.1 | around 4.1 g/kg
